Among the data in patent publication US20220396586A1, “THIAZOLE CARBOXAMIDE COMPOUNDS AND USE THEREOF FOR THE TREATMENT OF MYCOBACTERIAL INFECTIONS” (THE GLOBAL ALLIANCE FOR TB DRUG DEVELOPMENT, INC., priority 2019, published 2022) are MIC values, retold here.

One experiment deals with M. ab_ATCC. Nature of the experiment: MIC against Mycobacterium abscessus (M. ab_ATCC, MHII), procedure of Franz 2017. Format: cell-based. The note with it: Mycobacteroides abscessus, Mycobacterium abscessus ATCC. An excerpt:
The procedure described in Franz 2017 was used to generate the data shown in column 2 of Table 1.

In the next experiment the test system is M. tb H37Rv. Nature of the experiment: MIC determination against M. tb H37Rv (MIC-MABA). The settings on record: Mycobacterium tuberculosis, H37RV, 240 h, read-out: M. tb H37Rv: MIC-MABA, M. tb H37Rv; 7H9 broth; 10 days exposure; MIC = lowest concentration inhibiting fluorescence by 90%. Format: cell-based, Mycobacterium tuberculosis.

In brackets after ≈: the same amount, converted by molar mass. Some results are limits rather than exact numbers.

The term MIC denotes the smallest concentration in the dilution series that meets the test's criterion for growth inhibition. Consider `C[Si]1(C)CCC(NC(=O)c2cc3sc(C4CC4)nc3[nH]2)CC1` [MPL-240, 2-cyclopropyl-N-(1,1-dimethylsilinan-4-yl)-4H-pyrrolo[2,3-d]thiazole-5-carboxamide], for which the MIC with M. ab_ATCC is 0.5 µg/mL (≈ 1.5 µM); in the experiment with M. tb H37Rv, 0.46 µg/mL (≈ 1.38 µM).

For `Cc1c(C(=O)NC2CCCCCCC2)[nH]c2nc(C3CC3)sc12` [MPL-291, N-cyclooctyl-2-cyclopropyl-6-methyl-4H-pyrrolo[2,3-d]thiazole-5-carboxamide], the MIC against M. ab_ATCC is over 64 µg/mL; in the experiment with M. tb H37Rv it was 0.372 µg/mL (≈ 1.12 µM).

As for `Cc1c(C(=O)NC2CCCC[Si](C)(C)CC2)[nH]c2nc(C3CC3)sc12` (centres unmarked) [MPL-293, 2-cyclopropyl-N-(1,1-dimethylsilocan-4-yl)-6-methyl-4H-pyrrolo [2,3-d]thiazole-5-carboxamide], the MIC in the experiment with M. ab_ATCC is over 64 µg/mL; with M. tb H37Rv, 0.062 µg/mL (≈ 0.165 µM).

As to `C[Si]1(C)CCC(NC(=O)c2cc3sc(C4CC4)nc3[nH]2)C1` (centres unmarked) [MPL-297, 2-cyclopropyl-N-(1,1-dimethylsilolan-3-yl)-4H-pyrrolo[2,3-d]thiazole-5-carboxamide], the MIC is over 64 µg/mL against M. ab_ATCC and 0.982 µg/mL (≈ 3.07 µM) in the experiment with M. tb H37Rv.

As to `C[Si]1(C)CCCC(NC(=O)c2cc3sc(C4CC4)nc3[nH]2)CCC1` [MPL-304, 2-cyclopropyl-N-(1,1-dimethylsilocan-5-yl) -4H-pyrrolo[2,3-d]thiazole-5-carboxamide], the MIC was over 64 µg/mL against M. ab_ATCC and 0.291 µg/mL (≈ 0.805 µM) in the experiment with M. tb H37Rv.

As for `C[Si]1(C)CCC(NC(=O)c2cc3sc(-c4ccccc4)nc3[nH]2)CC1` [MPL-308, N-(1,1-dimethylsilinan-4-yl)-2-phenyl-4H-pyrrolo[2,3-d]thiazole-5-carboxamide], the MIC against M. ab_ATCC was over 64 µg/mL; with M. tb H37Rv, 0.007 µg/mL (≈ 0.0189 µM).

With `COc1nc2[nH]c(C(=O)NC3CC[Si](C)(C)CC3)cc2s1` [MPL-309, N-(1,1-dimethylsilinan-4-yl)-2-methoxy-4H-pyrrolo[2,3-d]thiazole-5-carboxamide], the figures for the MIC in the experiment on M. ab_ATCC and with M. tb H37Rv were 0.625 µg/mL (≈ 1.93 µM) and 0.088 µg/mL (≈ 0.272 µM), respectively.

In the case of `C[Si]1(C)CCC(NC(=O)c2[nH]c3sc(C4CC4)nc3c2Br)CC1` [MPL-311, 6-bromo-2-cyclopropyl-N-(1,1-dimethylsilinan-4-yl)-4H-pyrrolo[3,2-d]thiazole-5-carboxamide], the MIC against M. ab_ATCC was over 64 µg/mL; in the experiment on M. tb H37Rv it was 0.457 µg/mL (≈ 1.11 µM).

In the case of `Cc1c(C(=O)NC2CC[Si](C)(C)CC2)[nH]c2sc(C(C)C)nc12` [MPL-312, N-(1,1-dimethylsilinan-4-yl)-2-isopropyl-6-methyl-4H-pyrrolo[3,2-d]thiazole-5-carboxamide], the MIC in the experiment on M. ab_ATCC is over 64 µg/mL; with M. tb H37Rv it was 0.498 µg/mL (≈ 1.42 µM).

As for `COc1nc2cc(C(=O)NC3CC[Si](C)(C)CC3)[nH]c2s1` [MPL-313, N-(1,1-dimethylsilinan-4-yl)-2-methoxy-4H-pyrrolo[3,2-d]thiazole-5-carboxamide], the MIC with M. ab_ATCC is over 64 µg/mL; in the experiment on M. tb H37Rv, 0.254 µg/mL (≈ 0.785 µM).

With `O=C(NC1CC[Si]2(CCCC2)CC1)c1cc2sc(-c3ccccc3)nc2[nH]1` [MPL-358, 2-phenyl-N-(5-silaspiro[4.5]decan-8-yl)-4H-pyrrolo[2,3-d]thiazole-5-carboxamide], the MIC in the experiment with M. ab_ATCC was over 64 µg/mL; in the experiment on M. tb H37Rv, 0.033 µg/mL (≈ 0.0834 µM).

Consider `O=C(NC1CC[Si]2(CCCCC2)CC1)c1cc2sc(-c3ccccc3)nc2[nH]1` [MPL-359, 2-phenyl-N-(6-silaspiro[5.5]undecan-3-yl)-4H-pyrrolo[2,3-d]thiazole-5-carboxamide], for which the MIC against M. ab_ATCC was over 64 µg/mL; with M. tb H37Rv it was 0.014 µg/mL (≈ 0.0342 µM).

Turning to `C[Si]1(C)CCCC(NC(=O)c2cc3sc(-c4ccccn4)nc3[nH]2)CC1` (centres unmarked) [MPL-364, N-(1,1-dimethylsilepan-4-yl)-2-(2-pyridyl)-4H-pyrrolo[2,3-d]thiazole-5-carboxamide], the MIC against M. ab_ATCC was over 64 µg/mL; in the experiment with M. tb H37Rv it was 0.423 µg/mL (≈ 1.1 µM).

Turning to `C[Si]1(C)CCCC(NC(=O)c2cc3sc(-c4cccnc4)nc3[nH]2)CC1` (centres unmarked) [MPL-365, N-(1,1-dimethylsilepan-4-yl)-2-(3-pyridyl)-4H-pyrrolo[2,3-d]thiazole-5-carboxamide], the MIC against M. ab_ATCC is over 64 µg/mL; in the experiment with M. tb H37Rv it was 0.125 µg/mL (≈ 0.325 µM).

Take `C[Si]1(C)CCCC(NC(=O)c2cc3sc(-c4ccccc4)nc3[nH]2)CCC1` [MPL-369, N-(1,1-dimethylsilocan-5-yl)-2-phenyl-4H-pyrrolo[2,3-d]thiazole-5-carboxamide]: the MIC against M. ab_ATCC was over 64 µg/mL; in the experiment on M. tb H37Rv it was 0.031 µg/mL (≈ 0.078 µM).

As for `C[Si]1(C)CCC(NC(=O)c2cc3sc(-c4ccncc4)nc3[nH]2)CC1` [MPL-370, N-(1,1-dimethylsilinan-4-yl)-2-(4-pyridyl)-4H-pyrrolo[2,3-d]thiazole-5-carboxamide], the MIC is over 64 µg/mL with M. ab_ATCC and 0.574 µg/mL (≈ 1.55 µM) in the experiment with M. tb H37Rv.

Consider `Cc1ccccc1-c1nc2[nH]c(C(=O)NC3CC[Si](C)(C)CC3)cc2s1` [MPL-371, N-(1,1-dimethylsilinan-4-yl)-2-(o-tolyl)-4H-pyrrolo[2,3-d]thiazole-5-carboxamide], for which the MIC against M. ab_ATCC was over 64 µg/mL; in the experiment on M. tb H37Rv, 0.041 µg/mL (≈ 0.107 µM).

In the case of `COc1ccccc1-c1nc2[nH]c(C(=O)NC3CC[Si](C)(C)CC3)cc2s1` [MPL-372, N-(1,1-dimethylsilinan-4-yl)-2-(2-methoxyphenyl)-4H-pyrrolo[2,3-d]thiazole-5-carboxamide], the values for the MIC in the experiment on M. ab_ATCC and with M. tb H37Rv were over 64 µg/mL and 0.138 µg/mL (≈ 0.345 µM), respectively.

On to `C[Si]1(C)CCC(NC(=O)c2cc3sc(-c4ccccc4F)nc3[nH]2)CC1` [MPL-373, N-(1,1-dimethylsilinan-4-yl)-2-(2-fluorophenyl)-4H-pyrrolo[2,3-d]thiazole-5-carboxamide], for which the results for the MIC in the experiment on M. ab_ATCC and in the experiment with M. tb H37Rv were 6 µg/mL (≈ 15.5 µM) and 0.084 µg/mL (≈ 0.217 µM), respectively.

As to `COc1nc2[nH]c(C(=O)NC3CC[Si]4(CCCC4)CC3)cc2s1` [MPL-393, 2-methoxy-N-(5-silaspiro[4.5]decan-8-yl)-4H-pyrrolo[2,3-d]thiazole-5-carboxamide], the values for the MIC in the experiment on M. ab_ATCC and with M. tb H37Rv were over 64 µg/mL and 0.062 µg/mL (≈ 0.177 µM), respectively.

In the case of `COc1nc2[nH]c(C(=O)NC3CC[Si]4(CCCCC4)CC3)cc2s1` [MPL-394, 2-methoxy-N-(6-silaspiro[5.5]undecan-3-yl)-4H-pyrrolo[2,3-d]thiazole-5-carboxamide], the MIC against M. ab_ATCC is over 64 µg/mL; in the experiment with M. tb H37Rv, 0.04 µg/mL (≈ 0.11 µM).

Take `COc1nc2[nH]c(C(=O)NC3CCC[Si](C)(C)CCC3)cc2s1` [MPL-396, N-(1,1-dimethylsilocan-5-yl)-2-methoxy-4H-pyrrolo[2,3-d]thiazole-5-carboxamide]: the MIC in the experiment on M. ab_ATCC is over 64 µg/mL; in the experiment with M. tb H37Rv it was 0.309 µg/mL (≈ 0.879 µM).

As for `COc1nc2[nH]c(C(=O)NC3CC[Si](C)(C)C3)cc2s1` (centres unmarked) [MPL-403, N-(1,1-dimethylsilolan-3-yl)-2-methoxy-4H-pyrrolo[2,3-d]thiazole-5-carboxamide], the MIC against M. ab_ATCC came to 4 µg/mL (≈ 12.9 µM); in the experiment with M. tb H37Rv, 0.809 µg/mL (≈ 2.61 µM).

For the compound `C[Si]1(C)CCC(NC(=O)c2cc3sc(-c4ccccc4)nc3[nH]2)C1` (centres unmarked) [MPL-404, N-(1,1-dimethylsilolan-3-yl)-2-phenyl-4H-pyrrolo[2,3-d]thiazole-5-carboxamide], the MIC was 64 µg/mL (≈ 180 µM) in the experiment on M. ab_ATCC and 0.083 µg/mL (≈ 0.233 µM) with M. tb H37Rv.

`COCCOc1nc2[nH]c(C(=O)NC3CC[Si]4(CCCCC4)CC3)cc2s1` [MPL-427, 2-(2-methoxyethoxy)-N-(6-silaspiro[5.5]undecan-3-yl)-4H-pyrrolo[2,3-d] thiazole-5-carboxamide]: the MIC is over 64 µg/mL in the experiment on M. ab_ATCC and 0.036 µg/mL (≈ 0.0883 µM) with M. tb H37Rv.
